pIC50: −log10 of the molar value. Blank lines part the entries; values can stand above or below the compound they belong to.
Key:
HYAL1-type HAase = target: T1, HYAL1-type HAase (Homo sapiens, UniProt Q12794); assay: HAase ELISA-like assay, inhibition of HYAL1 activity; assay type: biochemical
T1 construct: HYAL1 cDNA encoding the full-length protein inserted into an expression vector; made in house
T1 sequence (Q12794 22-435): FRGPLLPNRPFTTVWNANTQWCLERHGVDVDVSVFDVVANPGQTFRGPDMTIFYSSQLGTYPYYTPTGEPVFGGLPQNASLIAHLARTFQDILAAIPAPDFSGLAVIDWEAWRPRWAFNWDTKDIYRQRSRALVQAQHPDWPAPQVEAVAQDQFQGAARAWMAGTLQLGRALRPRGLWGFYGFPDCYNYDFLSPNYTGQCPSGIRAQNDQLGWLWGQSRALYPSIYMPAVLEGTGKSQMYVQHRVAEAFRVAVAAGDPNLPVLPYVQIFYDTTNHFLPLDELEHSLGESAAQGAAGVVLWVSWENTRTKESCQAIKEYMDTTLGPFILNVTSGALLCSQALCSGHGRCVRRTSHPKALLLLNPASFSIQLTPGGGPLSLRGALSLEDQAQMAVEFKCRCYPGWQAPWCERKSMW
Experimental: Briefly, a stable HYAL1-expressing clone having about 40 mU/mL activity was expanded in T75 cm^2 flasks.
A microtiter well plate coated with human umbilical cord HA (MP Biomedicals; Irvine, Calif.) was incubated with about 40 mU/mL of HYAL1-type HAase in the presence or absence of various HAase inhibitors in assay buffer. For the HYAL1-type activity assay, 0.1 M sodium formate, 0.15 M NaCl, and 0.02% bovine serum albumin buffer (pH 4.2) was used as the assay buffer.
The effect of HAase inhibitors on the activity of HYAL1-type HAase was tested at 0, 1, 2, 4, 6, 8, 10, 20, 40, 60, 80 and 100 μg/mL concentrations of each inhibitor. […] Each plate was developed for 3 min and the reaction was terminated by adding 3 N HCl. HAase activity (mU/mL) was calculated from a standard graph prepared by plotting known amounts of Streptomyces HAase (10^−4 U/mL) versus (Control (no enzyme) OD405 nm-Sample OD405 nm). […] The data presented are mean ±SEM from duplicate measurements in two independent experiments.

HYAL1 = target: T2, HYAL1 (Homo sapiens, UniProt Q12794); details: Isoyama et al. (2006); cited from earlier work
T2 sequence (Q12794 22-435): T1 sequence (Q12794 22-435)

[1] = test system: HYAL1, testicular, honeybee, and Streptomyces hyaluronidases (HAases); details: Isoyama et al. (2006); 21 potential inhibitors; cited from earlier work
[2] = about 40 mU/mL HYAL1-type HAase, pH 4.2, 37° C. for 16 hours, N.D. = no inhibition detected

Compound: poly(styrene-4-sulfonate) [PSS 990,000]
IC50 (μg/mL), inhibition of HYAL1 activity (HYAL1-type HAase; [2]): 9.6 µg/mL
pIC50 (HYAL1): 8.02

Compound: poly(styrene-4-sulfonate) [PSS 150,000]
IC50 (μg/mL), inhibition of HYAL1 activity (HYAL1-type HAase; [2]): 10.5 µg/mL

Compound: poly(styrene-4-sulfonate) [PSS 1400]
IC50 to inhibit HYAL1 activity, fold higher than that for PSS 999,000 and PSS 17,000 (HYAL1-type HAase): 2.5 fold
IC50 (μg/mL), inhibition of HYAL1 activity (HYAL1-type HAase; [2]): 26.8 µg/mL

Compound: CCCCCCCCCCCCCCS(=O)(=O)O [1-Tetradecane sulfonic acid, 1-tetradecane sulfonic acid]
IC50 (HYAL1-type HAase; about 40 mU/mL HYAL1-type HAase, pH 4.2, 37° C. for 16 hours, N.D. = no inhibition detected, read-out: IC50 (μg/mL), inhibition of HYAL1 activity (converted)): 67.9 µM
Effectiveness as HAase inhibitor [1]: not effective HAase inhibitors

Compound: poly(styrene-4-sulfonate) [PSS 77,000]
IC50 (μg/mL), inhibition of HYAL1 activity (HYAL1-type HAase; [2]): 14.8 µg/mL

Compound: poly(styrene-4-sulfonate) [PSS 210]
IC50 for HYAL1 (HYAL1): no inhibition

Compound: O=C([O-])CC([S-])C(=O)[O-].[Au+].[Na+].[Na+] (stereo not drawn) [sodium aurothiomalate]
Effectiveness as HAase inhibitor [1]: not effective HAase inhibitors

Compound: poly(styrene-4-sulfonate) [PSS 17,000]
IC50 (μg/mL), inhibition of HYAL1 activity (HYAL1-type HAase; [2]): 15.2 µg/mL

Compound: poly(styrene-4-sulfonate) [PSS 350,000]
IC50 (μg/mL), inhibition of HYAL1 activity (HYAL1-type HAase; [2]): 13.15 µg/mL

IC50 (μg/mL), inhibition of HYAL1 activity (HYAL1-type HAase; [2]): 15.1 µg/mL
Compound: Heparin
HYAL1 inhibition (HYAL1): potent inhibitor

Compound: poly(styrene-4-sulfonate) [PSS 6800]
IC50 to inhibit HYAL1 activity, fold higher than that for PSS 999,000 and PSS 17,000 (HYAL1-type HAase): 2.5 fold
IC50 (μg/mL), inhibition of HYAL1 activity (HYAL1-type HAase; [2]): 22.71 µg/mL

Compound: poly(styrene-4-sulfonate) [PSS 32,000]
IC50 (μg/mL), inhibition of HYAL1 activity (HYAL1-type HAase; [2]): 13.5 µg/mL

Compound: CC1(C)[C@@H](O[C@H]2O[C@H](C(=O)O)[C@@H](O)[C@H](O)[C@H]2O[C@@H]2O[C@H](C(=O)O)[C@@H](O)[C@H](O)[C@H]2O)CC[C@]2(C)[C@H]3C(=O)C=C4[C@@H]5C[C@@](C)(C(=O)O)CC[C@]5(C)CC[C@@]4(C)[C@]3(C)CC[C@@H]12 [Glycerrhizic acid, glycerrhizic acid]
IC50 (μg/mL), inhibition of HYAL1 activity (HYAL1-type HAase; [2]): 32.4 µg/mL
Effectiveness as HAase inhibitor [1]: not effective HAase inhibitors

Compound: poly(styrene-4-sulfonate) [PSS 49,000]
IC50 (μg/mL), inhibition of HYAL1 activity (HYAL1-type HAase; [2]): 15.2 µg/mL

Compound: poly(styrene-4-sulfonate) [PSS 4300]
IC50 (μg/mL), inhibition of HYAL1 activity (HYAL1-type HAase; [2]): 8.48 µg/mL

— patent US20100075918A1, “HYALURONIDASE INHIBITORS AS ANTI-CANCER AGENTS” (priority 2006, published 2010)
